Values after ≈ are worked out from the molar mass of the structure shown.
system: He-La cells; experiment: cytotoxic activity on He-La cells (inhibition of cellular growth, protein determination); type: cell-based; settings: Homo sapiens, HeLa, 72 h, read-out: ID50 (inhibitory dose 50, dose which inhibits cellular growth by 50%)
Protocol: Testing commences using a culture having approximately 125,000 cells per milliliter. They are dispersed with trypsin and are maintained in suspension by stirring until the moment they are placed in tubes.
After 72 hours the results are read.

Row | Structure (SMILES) | IC50 [µg/mL]
1 | Nc1cc2c3c(cccc3c1)C(=O)N(CCN1CCCC1)C2=O [Example 11, N-[2-(1-pyrrolidino)-ethyl]-3-amino-1,8-naphthalimide] | 1.5 (≈ 4.85 µM)

same assay, conditions: Homo sapiens, HeLa; He-La cells, monolayer, 72 hours, protein determination (modified Lowry); read-out: ID50 (inhibitory dose 50, dose which inhibits cellular growth by 50%)

Row | Structure (SMILES) | IC50 [µg/mL]
2 | CN(C)N1C(=O)c2cccc3cc(N)cc(c23)C1=O [Example 17, N-dimethylamino-3-amino-1,8-naphthalimide] | 100 (≈ 392 µM)
3 | CN1CCN(CCCN2C(=O)c3cccc4cc([N+](=O)[O-])cc(c34)C2=O)CC1 [Example 5, N-3-(4-methyl-1-piperazino)-propyl-3-nitro-1,8-naphthalimide] | 2 (≈ 5.23 µM)
4 | CCOC(=O)Nc1cc2c3c(cccc3c1)C(=O)N(CCN1CCCC1)C2=O [Example 29, N-[2-(1-pyrrolidino)-ethyl]-3-ethoxycarbonylamino-1,8-naphthalimide] | 10 (≈ 26.2 µM)
5 | CN(C)CCN1C(=O)c2cccc3cc(Cl)cc(c23)C1=O [Example 18, N-(2-dimethylaminoethyl)-3-chloro-1,8-naphthalimide] | 0.8 (≈ 2.64 µM)
6 | CN(C)CCN1C(=O)c2cccc3cc(O)cc(c23)C1=O [Example 23, N-(2-dimethylaminoethyl)-3-hydroxy-1,8-naphthalimide] | 3 (≈ 10.6 µM)
7 | CC(=O)Nc1cc2c3c(cccc3c1)C(=O)N(CCN(C)C)C2=O [Example 30, N-(2-dimethylaminoethyl)-3-acetylamino-1,8-naphthalimide] | 4 (≈ 12.3 µM)
8 | O=C1c2cccc3cc(O)cc(c23)C(=O)N1CCN1CCCC1 [Example 24, N-[2-(1-pyrrolidino)-ethyl]-3-hydroxy-1,8-naphthalimide] | 3.5 (≈ 11.3 µM)
9 | CCN(CC)CCCN1C(=O)c2cccc3cc([N+](=O)[O-])cc(c23)C1=O [Example 2, N-(3-diethylaminopropyl)-3-nitro-1,8-naphthalimide] | 5 (≈ 14.1 µM)
10 | CC(=O)Nc1cc2c3c(cccc3c1)C(=O)N(CCN1CCCC1)C2=O [Example 31, N-[2-(1-pyrrolidino)-ethyl]-3-acetylamino-1,8-naphthalimide] | 5 (≈ 14.2 µM)
11 | CCN1CCCC(N2C(=O)c3cccc4cc([N+](=O)[O-])cc(c34)C2=O)C1 (stereo not drawn) [Example 4, N-3-(1-ethylpiperidino)-3-nitro-1,8-naphthalimide] | 6 (≈ 17 µM)
12 | O=C1c2cccc3cc([N+](=O)[O-])cc(c23)C(=O)N1CCN1CCOCC1 [Example 3, N-2-(N-morpholino)-ethyl-3-nitro-1,8-naphthalimide] | 20 (≈ 56.3 µM)
13 | O=C1c2cccc3cc([N+](=O)[O-])cc(c23)C(=O)N1N1CCCC1 [Example 7, N-(1-pyrrolidino)-3-nitro-1,8-naphthalimide] | > 100
14 | O=C1c2cccc3cc(Cl)cc(c23)C(=O)N1CCN1CCCCC1 [Example 20, N-[2-(1-piperidino)-ethyl]-3-chloro-1,8-naphthalimide] | 3.5 (≈ 10.2 µM)
15 | CN(C)CCN1C(=O)c2cccc3cc(C(C)(C)C)cc(c23)C1=O [Example 33, N-(2-dimethylaminoethyl)-3-tert-butyl-1,8-naphthalimide] | 14 (≈ 43.2 µM)
16 | CN1CCN(CCCN2C(=O)c3cccc4cc(N)cc(c34)C2=O)CC1 [Example 16, N-[3-(4-methyl-1-piperazino)-propyl]-3-amino-1,8-naphthalimide] | 10 (≈ 28.4 µM)
17 | CCOC(=O)Nc1cc2c3c(cccc3c1)C(=O)N(CCN(C)C)C2=O [Example 28, N-(dimethylaminoethyl)-3-ethoxycarbonylamino-1,8-naphthalimide] | 10 (≈ 28.1 µM)

Row | Structure (SMILES) | IC50 [µg/mL]
18 | O=C1c2cccc3cc(O)cc(c23)C(=O)N1CCN1CCOCC1 [Example 25, N-[2-(1-morpholino)-ethyl]-3-hydroxy-1,8-naphthalimide] | 100 (≈ 306 µM)
19 | O=C1c2cccc3cc(S(=O)(=O)O)cc(c23)C(=O)N1CCN1CCCC1 [Example 32, N-[2-(1-pyrrolidino)ethyl]-3-sulfo-1,8-naphthalimide] | > 100
20 | CCN(CC)CCCN1C(=O)c2cccc3cc(N)cc(c23)C1=O [Example 15, N-(3-diethylaminopropyl)-3-amino-1,8-naphthalimide] | 25 (≈ 76.8 µM)
21 | CN(C)CCCN1C(=O)c2cccc3cc(Cl)cc(c23)C1=O [Example 22, N-(3-dimethylaminopropyl)-3-chloro-1,8-naphthalimide] | 2 (≈ 6.31 µM)
22 | CN(C)CCCN1C(=O)c2cccc3cc(N)cc(c23)C1=O [Example 14, N-(3-dimethylaminopropyl)-3-amino-1,8-naphthalimide] | 5 (≈ 16.8 µM)
23 | O=C1c2cccc3cc(Cl)cc(c23)C(=O)N1CCN1CCCC1 [Example 19, N-[2-(1-pyrrolidino)-ethyl]-3-chloro-1,8-naphthalimide] | 1.5 (≈ 4.56 µM)
24 | COc1cc2c3c(cccc3c1)C(=O)N(CCN(C)C)C2=O [Example 26, N-(2-dimethylaminoethyl)-3-methoxy-1,8-naphthalimide] | 1.5 (≈ 5.03 µM)
25 | Nc1cc2c3c(cccc3c1)C(=O)N(CCN1CCCCC1)C2=O [Example 12, N-[2-(1-piperidino)-ethyl]-3-amino-1,8-naphthalimide] | 8 (≈ 24.7 µM)
26 | CN(C)N1C(=O)c2cccc3cc([N+](=O)[O-])cc(c23)C1=O [Example 6, N-dimethylamino-3-nitro-1,8-naphthalimide] | > 100
27 | Nc1cc2c3c(cccc3c1)C(=O)N(CCN1CCOCC1)C2=O [Example 13, N-[2-(1-morpholino)-ethyl]-3-amino-1,8-naphthalimide] | 10 (≈ 30.7 µM)
28 | CN(C)CCCN1C(=O)c2cccc3cc([N+](=O)[O-])cc(c23)C1=O [Example 1, N-(3-dimethylaminopropyl)-3-nitro-1,8-naphthalimide] | 1 (≈ 3.05 µM)
29 | COc1cc2c3c(cccc3c1)C(=O)N(CCN1CCCC1)C2=O [Example 27, N-[2-(1-pyrrolidino)-ethyl]-3-methoxy-1,8-naphthalimide] | 0.75 (≈ 2.31 µM)
30 | CCN(CC)CCN1C(=O)c2cccc3cc(N)cc(c23)C1=O [Example 10, N-(2-diethylaminoethyl)-3-amino-1,8-naphthalimide] | 3 (≈ 9.63 µM)
31 | NC(=O)NN1C(=O)c2cccc3cc([N+](=O)[O-])cc(c23)C1=O [Example 8, N-ureyl-3-nitro-1,8-naphthalimide] | > 100
32 | O=C1c2cccc3cc(Cl)cc(c23)C(=O)N1CCN1CCOCC1 [Example 21, N-[2-(1-morpholino)-ethyl]-3-chloro-1,8-naphthalimide] | 100 (≈ 290 µM)
33 | CN(C)CCN1C(=O)c2cccc3cc(N)cc(c23)C1=O [Example 9] | 2.5 (≈ 8.82 µM)

Source: patent US4204063A, “N(Aminoalkyl)-naphthalimides and their derivatives” (priority 1977, dated 1980)
